Values quoted from earlier work, collected in US8197846B2, “Sustained release pharmaceutical composition” (Astellas Pharma Inc., priority 2003, dated 2012).
Counter-ions that a name gives are not always drawn.

Assays:
[1] = not given; remark: listed apart in the source

CCOc1ccccc1OCCN[C@H](C)Cc1ccc(OC)c(S(N)(=O)=O)c1 [tamsulosin hydrochloride]
Cmax and AUC versus dose (0.1 to 0.6 mg oral, healthy adult volunteers): increased almost in proportion to the dose administered
day on which plasma concentration profiles reached the steady state (repeated administration per os for seven days): 4 days
adverse reactions (including abnormal clinical data) presumably related to the agent ([1]; 104 cases among 4724 cases, approval and post marketing surveillance in Japan): 2.2%
frequency of hypotension, postural hypotension, blood pressure, tachycardia and palpitation ([1]; package insert, circulatory area): less than 0.1%
frequency of orthostatic syncope, headache and sleepiness ([1]; package insert, psychoneural area): less than 0.1%

CCOc1ccccc1OCCN[C@H](C)Cc1ccc(OC)c(S(N)(=O)=O)c1 [Tamsulosin, (R)(−)-5-[2-[[2-(o-ethoxyphenoxy)ethyl]-amino]propyl]-2-methoxybenzenesulfonamide]
adverse reactions when administered as powder triturated with lactose ([1]; powder triturated with lactose): postural hypotension was induced
